{"source": "paper PMC9817100", "about": "“Preclinical profiles of SKB264, a novel anti-TROP2 antibody conjugated to topoisomerase inhibitor, demonstrated promising antitumor efficacy compared to IMMU-132” (Frontiers in Oncology, 2022)", "key": {"[1]": {"test": "tissue distribution after single i.v. injection in tumor-bearing nude mice", "assay_type": "in vivo", "details": "[3H]KL610023 0.1 mg/100 µCi/kg single i.v.; HCC1806 xenografted nude mice", "experimental": "A total of 96 female nude mice bearing human HCC1806 tumor cells were divided into 16 groups (n = 6 mice/group) according to body weights and tumor volumes. After receiving a single i.v. injection of [^3H]KL610023, at 0.083, 4, 24, and 72 h, as well as a single i.v. injection of [^3H-KL610023]SKB264, [^3H]SKB264-mAb, or [^3H-mAb]SKB264 at 1, 24, 168, and 336 h post-dosing, blood, tumor tissue, and 16 types of normal tissues were collected from the euthanized mice.\nPlasma samples were directly quantified by liquid scintillation counting (LSC) without further manipulation; however, the blood and tissue samples were digested with 1N of KOH at 90°C prior to quantification by LSC. The […] (TRA) for blood, plasma, and tissues was converted to nanogram equivalent of [^3H]KL610023 or TRA (ng Eq./g)."}, "NCI-H23(TROP2+)": {"test_system": "NCI-H23(TROP2+)", "test": "cytotoxic assay (CellTiter-Glo, 72 h) NCI-H23 (TROP2+)", "assay_type": "cell-based", "details": "Homo sapiens, read-out: IC50 cell growth inhibition", "experimental": "(§1) Tumor cells were seeded on 96-well plates at the following concentrations: HCC1806 (3,000 cells per well), NCI-N87 (5,000 cells per well), BxPC-3 (2,000 cells per well), Calu-3 (8,000 cells per well), NCI-H23 (TROP2+, 3,000 cells per well), and NCI-H23 (parental, 3,000 cells per well). After overnight incubation, the diluted testing items were added respectively. After 72 h, cell viability was evaluated using a CellTiter-Glo Luminescent Cell Viability Assay (Promega Corp. Madison, WI), following the manufacturer’s instruction."}, "HCC1806 (TROP2+)": {"test_system": "HCC1806 (TROP2+)", "test": "cytotoxic assay (CellTiter-Glo, 72 h) HCC1806", "assay_type": "cell-based, human", "details": "Homo sapiens", "experimental": "as §1"}, "NCI-H23 (TROP2-)": {"test_system": "NCI-H23 (TROP2-)", "test": "cytotoxic assay (CellTiter-Glo, 72 h) NCI-H23 (parental)", "assay_type": "cell-based", "details": "Homo sapiens, read-out: IC50 cell growth inhibition", "experimental": "as §1"}, "[2]": {"test": "payload KL610023 PK in plasma of cynomolgus monkey (Table 5)", "assay_type": "in vivo", "set-up": "Vz_obs / Cl_obs: unit not given here", "details": "KL610023 administered, n=4, dose not given", "from_the_text": "Since the metabolism of ADC is different from that of the toxic payload ([30], [31]), the linkage of SKB264 mAb can dramatically prolong the half-life of KL610023 as compared to KL610023 alone. Nevertheless, after being released from SKB264, KL610023 could be rapidly eliminated. […] Overall, the proprietary technology used in our study to construct SKB264 could ensure a more precise delivery process."}, "[3]": {"test": "PK of SKB264 and KL610023 in cynomolgus monkeys (serum)", "assay_type": "in vivo", "details": "unconjugated KL610023 0.24 mg/kg single i.v. infusion, n = 6, mean ± SD", "experimental": "The PK properties of SKB264 and Tab were determined by ELISA, for which the lower limit of quantitation was 7.813 ng/ml. The serum concentration of KL610023 was measured by a validated liquid chromatography tandem mass spectrometry (LC/MS-MS), for which the lower limit of quantitation was 0.100 ng/ml. A total of 24 cynomolgus monkeys were randomized into four groups (n = 3/sex/group). Groups #1, #2, and #3 were treated with 1, 3, and 10 mg/kg of SKB264, respectively, via 15 min i.v. infusion once. Group #4 received 0.24 mg/kg of unconjugated KL610023 via i.v. infusion once. The serum concentrations of SKB264, Tab, and KL610023 were continually measured up to 672 h post-dose.\nPhoenix WinNonlin 8.1 was used to calculate the PK parameters in the non-compartment model, including t 1/2, T max, C max, AUC0-t, and AUC0-∞. […] The half maximal effective concentration (EC50) and half maximal inhibitory concentration (IC50) were calculated using a nonlinear regression model with sigmoidal fitting. The in vitro antitumor activities of drugs were evaluated by a two-tailed paired t-test."}, "[4]": {"details": "both sexes, cynomolgus monkey, in vivo, iv"}}, "note": "Where two headings read alike, the source gives them in different places.", "data": [{"smiles": "CC[C@@]1(O)C(=O)OCc2c1cc1n(c2=O)Cc2c-1nc1ccccc1c2CCN(C(C)C)S(C)(=O)=O", "note": "[KL610023]", "values": [{"measurement": "distribution of total radioactivity", "setting": "[1]", "result": "widely distributed in the tissues and organs that had more abundant blood flow"}, {"measurement": "IC50", "setting": "NCI-H23(TROP2+)", "result": 4.77, "unit": "nM"}, {"measurement": "IC50", "setting": "HCC1806 (TROP2+); HCC1806 (TROP2+), 72 h, Figure 2D, read-out: IC50 cell growth inhibition", "result": 1.5, "unit": "nM"}, {"measurement": "IC50", "setting": "HCC1806 (TROP2+); HCC1806, payload comparison, Figure 7C, duplicates, read-out: IC50 inhibition of proliferation of HCC1806 cells", "result": 1.82, "unit": "nM"}, {"measurement": "IC50", "setting": "NCI-H23 (TROP2-)", "result": 2.14, "unit": "nM"}, {"measurement": "AUC(0-inf)", "setting": "[2]", "result": "97 ± 26.9", "unit": "ng·h/mL"}, {"measurement": "AUC(0-t)", "setting": "[2]", "result": "97 ± 26.7", "unit": "ng·h/mL"}, {"measurement": "Cl_obs", "setting": "[2]", "result": "535 ± 148"}, {"measurement": "Cmax", "setting": "[2]", "result": "273 ± 54.4", "unit": "ng/mL"}, {"measurement": "Vz_obs", "setting": "[2]", "result": "1119 ± 548"}, {"measurement": "half-life", "setting": "[2]", "result": 1.6, "unit": "h"}, {"measurement": "half-life", "setting": "[3]; both sexes, cynomolgus monkey, in vivo, iv, 0.24 mg/kg", "result": 5.7, "unit": "h"}, {"measurement": "AUC(0-inf)", "setting": "[3]; [4]", "result": "230 ± 43.9", "unit": "ng·h/mL"}, {"measurement": "AUC(0-t)", "setting": "[3]; [4]", "result": "228 ± 44.2", "unit": "ng·h/mL"}, {"measurement": "t 1/2", "setting": "[3]; 0.24 mg/kg", "result": "5.65 ± 2.53", "unit": "h"}]}]}
